Laboratory results as given in US4863902A, “Treatment of cancer” (Wakunaga Seiyaku Kabushiki Kaisha, priority 1985, dated 1989).

How the values were obtained:
[1] = system: Colon adenocarcinoma 38 (mouse colon adenocarcinoma); assay: Tumor weight of transplanted Colon adenocarcinoma 38 in C57BL/6 mice; type: in vivo; conditions: for tumor growth inhibiting effect, same experiment as Experimental Example 19: used in place of 5-FU in combination with FGF; for antitumor effect of (a) + (b) (quantity not headed; method of Experimental Example 4): Table 21
Description: Colon adenocarcinoma 38 (mouse colon adenocarcinoma) was minced into pieces and about 0.1 to 0.2 ml thereof was transplanted subcutaneously on the right side of mouse abdomen by a cell transplanting needle (trocker). Eleven days after transplantation, the size of tumor, namely longer diameter (a mm) and shorter diameter (b mm) of tumor were measured and the tumor weight was calculated according to the formula shown below [Instruction 14 (NCI) 1980].
Tumor weight (mg)=ab^2 /2
In the Table, days indicate the experimental days with the day of compound administration being as the day 1, and the tumor weight immediately before administration of compound of day 1 is made 100. The respective values show the average value ± standard error of case numbers of 10 to 20, in the Table, the marks of (*), * and *** indicate the statistical significance difference of the combined administration group relative to the 5-FU single administration group (the definition of P is as defined above).

[2] = system: mouse ovarian tumor M5076; assay: Tumor weight of solid tumor of mouse ovarian tumor in BDF1 mice; type: in vivo; conditions: for Tumor weight (day 1 = 100): Table 9, cisplatin 5 mg/Kg, hEGF, [Leu^21 ]-hEGF or hEGF-II 100 μg/Kg subcutaneous, average ± standard error
Description: BDF1 male mice were employed. The feeding conditions were the same as in Experimental Example 1.
Mouse ovarian tumor M5076 was transplanted subcutaneously at the axialla of mouse in 1-2×10^6 cells per mouse. 12 days after transplantation, the size of tumor was measured according to the same method as in Experimental Example 1 (Colon 26) and the tumor weight was calculated.
The grouping operation on initiation of Experiments was conducted in the same manner as in Experimental Example 1. The compounds were administered in the same manner as in Experimental Example 9.
The experiment was carried out in the samme manner as in Experimental Examples 1, 7 and as in Experimental Example 17 for others.

[3] = Table 12, day 4 after compound administration, weight before administration = 100, Tegafur 400, 5-FU 150, Mitomycin-C 5, Cisplatin 5 mg/Kg, hIGF-II 50 μg/Kg subcutaneous, average ± standard error of 8-10 mice
[4] = Table 13, same method as Experimental Example 20 (day 4), Tegafur 400, Mitomycin-C 5, Adriamycin 10, Cisplatin 5 mg/Kg, Insulin 50 m μg/Kg subcutaneous
[5] = Table 14, hTGFα 100 μg/10 ml/Kg with 5-FU, Tegafur, Mitomycin-C, Adriamycin or Cisplatin, as described for Table 12
[6] = Table 15, day 4 after compound administration, hTGFβ and hEGF 100 μg/Kg with each compound having antitumor action
[7] = (a) Adriamycin, Mixed injection
[8] = (a) Adriamycin, Separate injection
[9] = (a) Cisplatin, Separate injection
[10] = (a) Tegafur, Separate injection

Molecule | Tumor weight ratio(%) [1, 3] [%] | Tumor weight ratio(%) [1, 4] [%] | Tumor weight ratio(%) [1, 5] [%] | Tumor weight ratio(%) [1, 6] [%] | tumor growth inhibiting effect, same experiment as Experimental Example 19 [1] | antitumor effect of (a) + (b) (quantity not headed; method of Experimental Example 4) [1, 7] | antitumor effect of (a) + (b) (quantity not headed; method of Experimental Example 4) [1, 8] | antitumor effect of (a) + (b) (quantity not headed; method of Experimental Example 4) ([1]; (a) Cisplatin, Mixed injection) | antitumor effect of (a) + (b) (quantity not headed; method of Experimental Example 4) [1, 9] | antitumor effect of (a) + (b) (quantity not headed; method of Experimental Example 4) ([1]; (a) Tegafur, Mixed injection) | antitumor effect of (a) + (b) (quantity not headed; method of Experimental Example 4) [1, 10] | also measured
CO[C@@]12[C@H](COC(N)=O)C3=C(C(=O)C(C)=C(N)C3=O)N1C[C@@H]1N[C@@H]12 [MMC, mitomycin C] | 95.8 ± 5.5 | 95.8 ± 5.5 | 95.8 ± 5.5 | 101.1 ± 8.3 | the same results |  |  |  |  |  |  | Tumor weight (day 1 = 100) ([1]; Table 8, day 2, MMC 5 mg/Kg, hEGF, hEGF-II or [Leu^21 ]-hEGF 100 μg/Kg subcutaneous on day 1 and day 5, average ± standard error of 6 mice): 130.8 ± 8.5; Tumor weight (day 1 = 100) ([1]; Table 8, day 3, MMC 5 mg/Kg, hEGF, hEGF-II or [Leu^21 ]-hEGF 100 μg/Kg subcutaneous on day 1 and day 5, average ± standard error of 6 mice): 106.1 ± 9.4; Tumor weight (day 1 = 100) ([1]; Table 8, day 4, MMC 5 mg/Kg, hEGF, hEGF-II or [Leu^21 ]-hEGF 100 μg/Kg subcutaneous on day 1 and day 5, average ± standard error of 6 mice): 95.8 ± 5.5; Tumor weight (day 1 = 100) ([1]; Table 8, day 5, MMC 5 mg/Kg, hEGF, hEGF-II or [Leu^21 ]-hEGF 100 μg/Kg subcutaneous on day 1 and day 5, average ± standard error of 6 mice): 98.6 ± 3.9; Tumor weight (day 1 = 100) ([1]; Table 8, day 6, MMC 5 mg/Kg, hEGF, hEGF-II or [Leu^21 ]-hEGF 100 μg/Kg subcutaneous on day 1 and day 5, average ± standard error of 6 mice): 160.7 ± 10.9; Tumor weight (day 1 = 100) ([1]; Table 8, day 7, MMC 5 mg/Kg, hEGF, hEGF-II or [Leu^21 ]-hEGF 100 μg/Kg subcutaneous on day 1 and day 5, average ± standard error of 6 mice): 150.8 ± 15.9; Tumor weight (day 1 = 100) ([1]; Table 8, day 8, MMC 5 mg/Kg, hEGF, hEGF-II or [Leu^21 ]-hEGF 100 μg/Kg subcutaneous on day 1 and day 5, average ± standard error of 6 mice): 263.6 ± 30.8; Tumor weight (day 1 = 100) ([1]; Table 8, day 9, MMC 5 mg/Kg, hEGF, hEGF-II or [Leu^21 ]-hEGF 100 μg/Kg subcutaneous on day 1 and day 5, average ± standard error of 6 mice): 308.7 ± 54.0
TGFα: human transforming growth factor α |  |  |  |  |  | 98.4 | 92.6 | 80.4 | 80.1 | 34.3 | 40.6 | 
N.N.[Cl][Pt][Cl] [Cisplatin, cisplatin] | 145.6 ± 9.1 | 145.6 ± 9.1 | 145.6 ± 9.1 | 139.8 ± 9.9 | the same results |  |  |  |  |  |  | Tumor weight (day 1 = 100) ([2]; day 2): 126.4 ± 9.0; Tumor weight (day 1 = 100) ([2]; day 3): 125.49 ± 8.3; Tumor weight (day 1 = 100) ([2]; day 4): 136.9 ± 5.2; Tumor weight (day 1 = 100) ([2]; day 5): 143.6 ± 14.5; Tumor weight (day 1 = 100) ([2]; day 6): 192.0 ± 20.6
O=P1(N(CCCl)CCCl)NCCCO1 (stereo not shown) [Cyclophosphamide, cyclophosphamide] |  |  |  | 90.6 ± 7.6 | the same results |  |  |  |  |  |  | Tumor weight (day 1 = 100) ([1]; Table 7, day 2, cyclophosphamide 200 mg/Kg, hEGF 100 μg/Kg subcutaneous on day 1 and day 3, average ± standard error of 8 mice): 145.2 ± 18.2; Tumor weight (day 1 = 100) ([1]; Table 7, day 3, cyclophosphamide 200 mg/Kg, hEGF 100 μg/Kg subcutaneous on day 1 and day 3, average ± standard error of 8 mice): 147.6 ± 13.7; Tumor weight (day 1 = 100) ([1]; Table 7, day 4, cyclophosphamide 200 mg/Kg, hEGF 100 μg/Kg subcutaneous on day 1 and day 3, average ± standard error of 8 mice): 102.4 ± 8.6; Tumor weight (day 1 = 100) ([1]; Table 7, day 5, cyclophosphamide 200 mg/Kg, hEGF 100 μg/Kg subcutaneous on day 1 and day 3, average ± standard error of 8 mice): 92.2 ± 5.1; Tumor weight (day 1 = 100) ([1]; Table 7, day 6, cyclophosphamide 200 mg/Kg, hEGF 100 μg/Kg subcutaneous on day 1 and day 3, average ± standard error of 8 mice): 108.5 ± 19.6; Tumor weight (day 1 = 100) ([1]; Table 7, day 7, cyclophosphamide 200 mg/Kg, hEGF 100 μg/Kg subcutaneous on day 1 and day 3, average ± standard error of 8 mice): 110.9 ± 21.3
O=c1[nH]c(=O)n(C2CCCO2)cc1F (stereo not shown) [Tegafur, 1-(2-tetrahydrofuryl)-5-fluorouracil] | 95.2 ± 15.4 | 95.2 ± 15.4 | 95.2 ± 15.4 | 118.0 ± 9.8 |  |  |  |  |  |  |  | Tumor weight (day 1 = 100) ([1]; Table 6, day 2, Tegafur 400 mg/Kg, hEGF 100 μg/Kg subcutaneous on day 1 and day 4, average ± standard error of 7 mice): 89.0 ± 10.5; Tumor weight (day 1 = 100) ([1]; Table 6, day 3, Tegafur 400 mg/Kg, hEGF 100 μg/Kg subcutaneous on day 1 and day 4, average ± standard error of 7 mice): 102.1 ± 13.5; Tumor weight (day 1 = 100) ([1]; Table 6, day 4, Tegafur 400 mg/Kg, hEGF 100 μg/Kg subcutaneous on day 1 and day 4, average ± standard error of 7 mice): 105.5 ± 18.4; Tumor weight (day 1 = 100) ([1]; Table 6, day 5, Tegafur 400 mg/Kg, hEGF 100 μg/Kg subcutaneous on day 1 and day 4, average ± standard error of 7 mice): 104.2 ± 22.6; Tumor weight (day 1 = 100) ([1]; Table 6, day 6, Tegafur 400 mg/Kg, hEGF 100 μg/Kg subcutaneous on day 1 and day 4, average ± standard error of 7 mice): 94.5 ± 16.9; Tumor weight (day 1 = 100) ([1]; Table 6, day 7, Tegafur 400 mg/Kg, hEGF 100 μg/Kg subcutaneous on day 1 and day 4, average ± standard error of 7 mice): 131.4 ± 23.3; Tumor weight (day 1 = 100) ([1]; Table 6, day 8, Tegafur 400 mg/Kg, hEGF 100 μg/Kg subcutaneous on day 1 and day 4, average ± standard error of 7 mice): 143.7 ± 20.6; Tumor weight ratio(%) ([1]; Table 16, day 4 after administration, Tegafur in place of 5-FU, FGF as in Experimental Example 19): 103.1 ± 13.1%; Tumor weight ratio(%) ([1]; Table 17, day 4 after compound administration, Tegafur 400 mg/Kg, hEGF, hEGF-II, [Leu^21 ]-hEGF each 100 μg/Kg, RA 30 mg/Kg subcutaneous): 90.6 ± 11.5%
[Leu^21 ]-hEGF: derivative of hEGF with the 21st methionine from the N-terminal substituted with leucine (NSDSECPLSHDGYCLHDGVCLYIEALDKYACNCVVGYIGERCQYRDLKWWELR; not fully specified; Epidermal growth factor; UniProt P01133 971-1023, looked up, variant M21L) |  |  |  |  |  | 99.6 | 97.8 | 90.4 | 100.1 | 48.1 | 50.3 | antitumor effect potentiation, same experiment as Experimental Example 17 ([2]; used together with mytomycin C in place of cisplatin): the same results; tumor cell growth inhibition, same experiment as Experimental Example 4 ([1]; used in place of hEGF in combination with 5-FU): the same results; tumor cell growth inhibition, same experiment as Experimental Example 14 ([1]; used in place of hEGF in combination with Tegafur): the same results; antitumor action potentiating effect, same experiment as Experimental Example 9 ([1]; used in place of hEGF in combination with cisplatin): the same results; tumor cell growth inhibiting effect, same experiment as Experimental Example 15 ([1]; used in place of hEGF in combination with cyclophosphamide): the same results
Insulin |  |  |  |  |  | 110.2 | 121.1 | 105.6 | 110.3 | 58.9 | 48.1 | 
